One experiment relates to B16F10 cells. The experiment can be described thus: Cell proliferation assay B16F10 (alamarBlue). Type of experiment: cell-based. The conditions noted are these: Mus musculus, B16-F10, melanoma (BRAF wild-type) cells, 96 hours. On the procedure:
(§1) In accordance with the invention, the ability of the substances to inhibit cell proliferation was determined. Cell viability was determined by means of the alamarBlue® reagent (Invitrogen) in a Victor X3 Multilabel Reader (Perkin Elmer). The excitation wavelength was 530 nm and the emission wavelength […].
The B16F10 cells (ATCC, CRL-6475) were seeded at a concentration of 300-500 cells/well in 100 μl of growth medium (DMEM with phenol red, 10% FCS) on 96-well microtitre plates.
(§2) After overnight incubation at 37° C., the fluorescence values (CI values) were determined. Then the plates were treated with various substance dilutions (1E-5 M, 3E-6 M, 1E-6 M, 3E-7 M, 1E-7 M, 3E-8 M, 1E-8 M) and incubated at 37° C. over 96 hours (MOLM-13, B16F10, CHL-1 cells) or 120 hours (MOLP-8 cells). Subsequently, the fluorescence values were determined (CO values). For the data analysis, the CI values were subtracted from the CO values and the results were compared between cells which had been treated with various dilutions of the substance or only with buffer solution. The IC50 values (substance concentration needed for 50% inhibition of cell proliferation) were calculated therefrom.
(§3) The substances were tested in the cell lines in Table 2, which represent the indications specified by way of example: […]

For the next experiment, the system named is CHL-1 cells. The experiment in a line: Cell proliferation assay CHL-1 (alamarBlue). It is filed as cell-based. The note with it: Homo sapiens, melanoma (BRAF wild-type) cells, 96 hours. How it is done: as §1
The CHL-1 cells (ATCC, CRL-9446) were seeded at a concentration of 1000 cells/well in 100 μl of growth medium (DMEM with glutamine, 10% FCS) on 96-well microtitre plates.
as §2, §3

For experiment [1], the target named is T1, BRD4 bromo domain 2 [BRD4(2)] (Homo sapiens, UniProt O60885).
T1 construct: N-terminally His6-tagged BRD4(2) (amino acids 357-445); made in house; host or cells: E. coli
The experiment can be described thus: BRD4(2)/acetylated peptide H4 TR-FRET binding assay. The note with it: His6-BRD4(2) (aa 357-445) vs acetylated histone H4 peptide. The procedure, abridged: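 His6-BRD4(2) (aa 357-445, E. coli-expressed, 100 nM) pre-incubated 10 min with compound (11 concentrations, 0.1 nM-20 μM, duplicates), then with biotinylated tetra-acetylated H4 peptide in HEPES pH 7.5 buffer, 1 h at 22 °C plus 3 h to overnight at 4 °C. TR-FRET 665/620 ratio; IC50 from 4-parameter fit.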
(In general: Time-resolved FRET reads energy transfer from a long-lived donor to a nearby acceptor.)

Another experiment has as its system MOLP-8 cells. The experiment in a line: Cell proliferation assay MOLP-8 (alamarBlue). Type of experiment: cell-based. The conditions noted are these: Homo sapiens, multiple myeloma cells, 120 hours. On the procedure:
as §1
The MOLP-8 cells (DSMZ, ACC 569) were seeded at a concentration of 4000 cells/well in 100 μl of growth medium (RPMI1640, 20% FCS) on 96-well microtitre plates.
as §2, §3

Each structure is given as a SMILES string.

One may read the IC50 as the point on the concentration scale where inhibition reaches its midpoint. Higher therefore signals lower potency.

For `CC(C)S(=O)(=O)c1cccc(Nc2ccc3c(n2)N(C2CCOCC2)[C@H](C)C(=O)N3C)c1` [Example 7, (3R)-6-{[3-(Isopropylsulphonyl)phenyl]amino}-1,3-dimethyl-4-(tetrahydro-2H-pyran-4-yl)-3,4-dihydropyrido[2,3-b]pyrazin-2(1H)-one], the concentration for half-maximal inhibition (IC50) in the experiment on B16F10 cells is 104 nM; in the experiment with CHL-1 cells, 51 nM; in experiment [1] it was 44 nM; in the experiment on MOLP-8 cells it was 75 nM.
The matching figures for `C[C@@H]1C(=O)N(C)c2ccc(Nc3cccc(C(F)(F)F)c3)nc2N1C1CCOCC1` [Example 43, (3R)-1,3-Dimethyl-4-(tetrahydro-2H-pyran-4-yl)-6-{[3-(trifluoromethyl)phenyl]amino}-3,4-dihydropyrido[2,3-b]pyrazin-2(1H)-one]: 1080 nM, 707 nM, 234 nM and 911 nM.
The matching figures for `C[C@@H]1C(=O)N(C)c2ccc(Nc3cccc(S(C)(=O)=O)c3)nc2N1C1CCCCCC1` [Example 5, (3R)-4-Cycloheptyl-1,3-dimethyl-6-{[3-(methylsulphonyl)phenyl]amino}-3,4-dihydropyrido[2,3-b]pyrazin-2(1H)-one]: 611 nM, 371 nM, 96 nM and 560 nM.
Turning to `COc1ccc(S(C)(=O)=O)cc1Nc1ccc2c(n1)N(C(C)C)[C@H](C)C(=O)N2C` [Example 14, (3R)-4-Isopropyl-6-{[2-methoxy-5-(methylsulphonyl)phenyl]amino}-1,3-dimethyl-3,4-dihydropyrido[2,3-b]pyrazin-2(1H)-one], the half-inhibitory concentration (IC50) in the experiment with B16F10 cells worked out at 248 nM; in the experiment with CHL-1 cells, 118 nM; in experiment [1], 76 nM; in the experiment with MOLP-8 cells it was 174 nM.
The corresponding values for `COc1ccc(S(=O)(=O)C2CC2)cc1Nc1ccc2c(n1)N(C1CCOCC1)[C@H](C)C(=O)N2C` [Example 8, (3R)-6-{[5-(Cyclopropylsulphonyl)-2-methoxyphenyl]amino}-1,3-dimethyl-4-(tetrahydro-2H-pyran-4-yl)-3,4-dihydropyrido[2,3-b]pyrazin-2(1H)-one] are 37 nM, 18 nM, 49 nM and 23 nM.
The matching figures for `Cc1ccc(S(C)(=O)=O)cc1Nc1ccc2c(n1)N(C1CCOCC1)[C@H](C)C(=O)N2C` [Example 2, (3R)-1,3-Dimethyl-6-{[2-methyl-5-(methylsulphonyl)phenyl]amino}-4-(tetrahydro-2H-pyran-4-yl)-3,4-dihydropyrido[2,3-b]pyrazin-2(1H)-one]: 319 nM, 189 nM, 173 nM and 236 nM.
The matching figures for `C[C@@H]1C(=O)N(C)c2ccc(Nc3ccc4c(c3)S(=O)(=O)CC4)nc2N1C1CCOCC1` [Example 4, (3R)-6-[(1,1-Dioxido-2,3-dihydro-1-benzothiophen-6-yl)amino]-1,3-dimethyl-4-(tetrahydro-2H-pyran-4-yl)-3,4-dihydropyrido[2,3-b]pyrazin-2(1H)-one]: 375 nM, 196 nM, 64 nM and 221 nM.
In the case of `COc1ccc(S(C)(=O)=O)cc1Nc1ccc2c(n1)N(C1CCOCC1)[C@H](C)C(=O)N2C` [Example 3, (3R)-6-{[2-Methoxy-5-(methylsulphonyl)phenyl]amino}-1,3-dimethyl-4-(tetrahydro-2H-pyran-4-yl)-3,4-dihydropyrido[2,3-b]pyrazin-2(1H)-one], the concentration for half-maximal inhibition (IC50) turned out to be 199 nM in the experiment with B16F10 cells, 127 nM with CHL-1 cells, 58 nM in experiment [1] and 103 nM with MOLP-8 cells.
The corresponding values for `C[C@@H]1C(=O)N(C)c2ccc(Nc3cccc(S(=O)(=O)C4CC4)c3)nc2N1C1CCOCC1` [Example 6, (3R)-6-{[3-(Cyclopropylsulphonyl)phenyl]amino}-1,3-dimethyl-4-(tetrahydro-2H-pyran-4-yl)-3,4-dihydropyrido[2,3-b]pyrazin-2(1H)-one] are 87 nM, 46 nM, 40 nM and 67 nM.
The corresponding values for `COc1ccc(S(=O)(=O)C2CC2)cc1Nc1ccc2c(n1)N(C(C)C)[C@H](C)C(=O)N2C` [Example 15, (3R)-6-{[5-(Cyclopropylsulphonyl)-2-methoxyphenyl]amino}-4-isopropyl-1,3-dimethyl-3,4-dihydropyrido[2,3-b]pyrazin-2(1H)-one] are 132 nM, 52 nM, 49 nM and 118 nM.
The corresponding values for `Cc1cc(Nc2ccc3c(n2)N(C2CCOCC2)[C@H](C)C(=O)N3C)ccn1` [Example 42, (3R)-1,3-Dimethyl-6-[(2-methylpyridin-4-yl)amino]-4-(tetrahydro-2H-pyran-4-yl)-3,4-dihydropyrido[2,3-b]pyrazin-2(1H)-one] are 1080 nM, 445 nM, 180 nM and 436 nM.
Regarding `COc1ccc(S(=O)(=O)C(C)C)cc1Nc1ccc2c(n1)N(C1CCOCC1)[C@H](C)C(=O)N2C` [Example 9, (3R)-6-{[5-(Isopropylsulphonyl)-2-methoxyphenyl]amino}-1,3-dimethyl-4-(tetrahydro-2H-pyran-4-yl)-3,4-dihydropyrido[2,3-b]pyrazin-2(1H)-one], the IC50 is 34 nM in the experiment with B16F10 cells, 19 nM in the experiment with CHL-1 cells, 53 nM in experiment [1] and 38 nM in the experiment with MOLP-8 cells.
The corresponding values for `CC1C(=O)N(C)c2ccc(Nc3cccc(S(C)(=O)=O)c3)nc2N1c1ccccc1` (stereo not shown) [Example 17, 1,3-Dimethyl-6-{[3-(methylsulphonyl)phenyl]amino}-4-phenyl-3,4-dihydropyrido[2,3-b]pyrazin-2(1H)-one] are 1100 nM, 800 nM, 212 nM and 1060 nM.
The matching figures for `C[C@@H]1C(=O)N(C)c2ccc(Nc3cccc(S(C)(=O)=O)c3)nc2N1C1CCOCC1` [Example 1, (3R)-1,3-Dimethyl-6-{[3-(methylsulphonyl)phenyl]amino}-4-(tetrahydro-2H-pyran-4-yl)-3,4-dihydropyrido[2,3-b]pyrazin-2(1H)-one]: 285 nM, 180 nM, 121 nM and 204 nM.
With `CCOC(=O)N=S(C)(=O)c1cccc(Nc2ccc3c(n2)N(C2CCOCC2)[C@H](C)C(=O)N3C)c1` (mixture of isomers) [Example 10, Ethyl [(3-{[(3R)-1,3-dimethyl-2-oxo-4-(tetrahydro-2H-pyran-4-yl)-1,2,3,4-tetrahydropyrido[2,3-b]pyrazin-6-yl]amino}phenyl)(methyl)oxido-λ^6-sulphanylidene]carbamate], the IC50 with B16F10 cells is 304 nM; with CHL-1 cells, 196 nM; in experiment [1] it was 6120 nM; with MOLP-8 cells, 281 nM.
The matching figures for `COc1ccc(S(=O)(=O)C(C)C)cc1Nc1ccc2c(n1)N(C(C)C)[C@H](C)C(=O)N2C` [Example 16, (3R)-4-Isopropyl-6-{[5-(isopropylsulphonyl)-2-methoxyphenyl]amino}-1,3-dimethyl-3,4-dihydropyrido[2,3-b]pyrazin-2(1H)-one]: 180 nM, 76 nM, 33 nM and 135 nM.

For the origin of these results see patent US20170121322A1, “BET-PROTEIN INHIBITING 3,4-DIHYDROPYRIDO[2,3-B]PYRAZINONES WITH META-SUBSTITUTED AROMATIC AMINO- OR ETHER GROUPS” (Bayer Pharma Aktiengesellschaft, priority 2014, published 2017).
